Laboratory results taken from patent US6451846B1, “Isocoumarin derivatives inhibiting angiogenesis” (Korea Research Institute of Bioscience and Biotechnology, priority 1999, dated 2002).
“Also recorded” adds a separate entry of the source.

Tests used:
[1] = tested on: human umbilical vein endothelial cells (HUVEC); assay: Inhibition of tube formation in human endothelial cells on Matrigel; type: cell-based; conditions: for inhibition at 0.5 µg/mL: 0.5 μg/ml; for inhibition at 1 µg/mL: 1.0 μg/ml
Excerpt: In order to determine the inhibitory effect of the isocoumarin derivatives against the angiogenesis, in vitro, endothelial cells, HUVEC (human umbilical vein endothelial cell) are selected. Under a specific culture condition, endothelial cells are migrated and differentiated into capillary tubes. Similar to the angiogenesis in vivo, the tube formation assay may be a good model to determine the influence of the isocoumarin derivatives on angiogenesis.
Various concentrations of the two isocoumarin derivatives are added to endothelial cells to monitor under a microscope whether the isocoumarin derivatives inhibited the differentiation of endothelial cells into capillary tubes. From this experiment, the two isocoumarin derivatives are found to inhibit the angiogenesis in concentration-dependent manners. […] However, the differentiation of HUVEC into a capillary tube is inhibited by 6,8-dihydroxy-4-acetyl-isocoumarin down to the concentration of as low as 0.2 μg/ml.
To determine the inhibitory effect of the two compounds obtained in Example 1 on the angiogenesis in vitro, human umbilical vein endothelial cells (HUVEC) were used as a model on the basis that they are migrated and differentiated into capillary tubes on Matrigel HUVEC was cultured in a gelatin-coated culture flask with an M199 medium supplemented with 20% FBS, 2 ng/ml bFGF and 100 μg/ml heparin at 37° C. incubator in a humidified atmosphere containing 5% CO2. The cultured HUVEC were treated with trypsin/EDTA to make a single cell suspension, the cells were plated on Matrigel coated 96-well plates with an M199 medium supplemented with 20% FBS, 2 ng/ml bFGF and 100 μg/ml heparin) at a density of 2×10^4 cells/well. The two compounds obtained in Example 1 were independently added at various concentrations into the wells and the plate was incubated for 18-48 hours in a CO2 incubator. The formation of capillary-like tube was monitored under a microscope during the incubation. The cells in the well containing vehicle (DMSO) became to be robuster and longer hollow tube networks as incubation time went on, but the tubes in the wells containing samples were broken and shortened. The inhibitory activity against tube formation was compared with control by measuring the length of the capillary tubes formed.

[2] = tested on: chorioallantoic membranes at 4.5-day old chick embryo; assay: Chorioallantoic membrane (CAM) assay, inhibition of angiogenesis in vivo; conditions: positive eggs/used eggs × 100%
Method: Chorioallantoic membrane (CAM) assay was used to measure whether the two isocoumarin derivatives are effective to inhibit angiogenesis in vivo. Fertilized chick eggs were kept in a humidified incubator at 37° C. After 3 days incubation, egg albumin were removed with hypodermic needle to allow CAM and yolk sac to drop away from the shell membrane. On day 3.5, the shell was punched out and removed to be a circular window and the shell membrane was removed. For testing of angiogenesis inhibition, a pieces of thermanox coverslip was coated with various concentration of the isocoumarin derivatives. The thermanox coverslip was placed on the chorioallantoic membranes at 4.5-day old chick embryo. After 2 days incubation at 37° C., 10% fat emulsion was injected into chorioallantois and observed blood vessel formation during an embryogenesis or development procedure. As a positive control, retinoic acid was used and non-treated coverslip for negative control.
Chorioallantoic membrane (CAM) assay was used to measure whether the two compounds obtained in Example 1 are effective to inhibit angiogenesis in vivo. Fertilized chick eggs were kept in a humidified incubator at 37° C. After 3 days incubation, about 2 ml of egg albumin were removed with hypodermic needle to allow CAM and yolk sac to drop away from the shell membrane. On day 3.5, the shell was punched out and removed to be a circular window and the shell membrane was removed. For testing of angiogenesis inhibition, a pieces of thermanox coverslip was coated with the isocoumarin derivatives dissolved in ethanol at concentration of 1, 5 and 10 μg/coverslip and the ethanol was evaporated. The thermanox coverslip were placed on the chorioallantoic membranes at 4.5-day old chick embryo. After 2 days incubation at 37° C., 1-2 ml of 10% fat emulsion was injected into chorioallantois and observed blood vessel formation during an embryogenesis or development procedure under a microscope. As a positive control, 1 μg/egg of retinoic acid was used and a negative control was non-treated. coverslip.

[3] = tested on: HUVEC; assay: Cytotoxicity to HUVEC; type: cell-based, human; conditions: same concentrations as in the angiogenesis inhibition
[4] = Acute toxicity test with rat; conditions: in vivo, 300 mg/kg; for Death and clinical symptoms / Toxic signs in weight change, serologic test, serobiochemical test, corpse examination: po; for LD50: rat, SD-rats, single oral administration, read-out: lethal dose (LD50)
Method: Specific pathogen-free (SPF) SD-rats (six weeks old) were used for the test of acute toxicity. Suspensions of the compounds of formulae 2 and 3 in 0.5% methyl cellulose were orally administered once at a dose of 300 mg/kg/10 ml to the rats. After the administration, the animals were observed as to their death, clinical symptoms and weight change, and serological and serobiochemically tested. An autopsy was made over the rats with the naked eye to observe whether their abdominal and thoracic organs were damaged. […] The compounds tested caused no toxic changes rats over the rats to the dose of 300 mg/lkg and thus, found to be safe compounds with a lethal dose (LD50) of at least 300 mg/kg when being administered via an oral route.

[5] = Homo sapiens, length of capillary tubes vs control, read-out: Inhibitory activity (%) against tube formation

Row | SMILES | Lowest concentration still inhibiting differentiation of HUVEC into capillary tubes [1] | inhibition at 0.5 µg/mL [1, 5] | inhibition at 1 µg/mL [1, 5] | inhibition at 4 µg/mL ([1]; Homo sapiens, 4 μg/ml, length of capillary tubes vs control, read-out: Inhibitory activity (%) against tube formation) | inhibition at 10 µg/mL ([1]; Homo sapiens, 10 μg/ml, length of capillary tubes vs control, read-out: Inhibitory activity (%) against tube formation) | Inhibition rate (%) ([2]; 1 μg/egg) | Inhibition rate (%) ([2]; 5 μg/egg) | Inhibition rate (%) ([2]; 10 μg/egg) | Inhibition rate (%) ([2]; 10 μg/egg, listed as 6,8-dihydroxy-4-(1-hydroxyetyl)-isocoumarin) | Cytotoxicity to HUVEC [3] | Death and clinical symptoms [4] | Toxic signs in weight change, serologic test, serobiochemical test, corpse examination [4] | LD50 [4] | inhibition at 0.05 µg/mL ([1]; Homo sapiens, 0.05 μg/ml, length of capillary tubes vs control, read-out: Inhibitory activity (%) against tube formation) | inhibition at 0.2 µg/mL ([1]; Homo sapiens, 0.2 μg/ml, length of capillary tubes vs control, read-out: Inhibitory activity (%) against tube formation)
1 | CC(O)c1coc(=O)c2c(O)cc(O)cc12 (centres unmarked) [6,8-dihydroxy-4-(1-hydroxyethyl)-isocoumarin] | 4 µg/mL | 0% | 0% | 60% | 100% | 27.3% | 66.7% | 83.3% | 78.6% | did not show cytotoxicity | Neither sudden death nor noticeable clinical symptoms were detected | no toxic signs were observed | ≥ 300 mg/kg |  | 
2 | CC(=O)c1coc(=O)c2c(O)cc(O)cc12 [6,8-dihydroxy-4-acetyl-isocoumarin] | 0.2 µg/mL | 85% | 100% |  |  | 50.0% | 83.3% | 93.3% |  | no cytotoxicity; also recorded: did not show cytotoxicity | Neither sudden death nor noticeable clinical symptoms were detected | no toxic signs were observed | ≥ 300 mg/kg | 0% | 50%
3 | CC1=C(/C=C/C(C)=C/C=C/C(C)=C/C(=O)O)C(C)(C)CCC1 [retinoic acid, reference compound] |  |  |  |  |  | 79.2% |  |  |  |  |  |  |  |  | 
